From PubChem BioAssay (NCI)
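Values below derive from 48-hour exposures of cells grown in 96-well plates, with endpoints linearly interpolated between the two concentrations bracketing the appropriate inhibition level. GI50: concentration for 50% inhibition of growth. The concentration for full growth arrest is given as TGI.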

What follows are molecules tested on NCI-H23 lung (assay: DTP human tumour cell line panel, 48 h).
In the case of `CN(C)C(=S)/N=c1\ss/c(=N\S(=O)(=O)c2ccccc2)n1-c1ccccc1`, the TGI is reported as greater than 100 µM. For `COc1cc2c3c(n(CCCN4CCC(N)CC4)c(=O)c2cc1OC)-c1cc2c(cc1C3=O)OCO2`, the GI50 was 0.475 µM and the TGI was 1.6 µM. For `C=C(C)[C@@H]1CC[C@@]2(C(=O)O)CC[C@]3(C)C(CCC4[C@@]5(C)CCC(OS(=O)(=O)c6ccccc6)C(C)(C)C5CC[C@]43C)C12` (some centres not stated), the GI50 was 3.28 µM and the TGI was 15.5 µM. Molecule `O=C(N/N=C/c1ccc(Cl)cc1Cl)c1ccccc1Nc1cccc(C(F)(F)F)c1` has a GI50 of 5.93 µM and a TGI of 32.8 µM. In the case of `N#Cc1c(N)c(C(=O)O)nn(-c2cccc(C(F)(F)F)c2)c1=O`, the TGI is reported as greater than 100 µM. Molecule `CCOC(=O)Cc1nc(/C(C#N)=C/c2ccco2)[nH]c(=O)c1C#N` has a TGI greater than 100 µM. `CC1=Nc2c(ccc3c2C(=O)c2ccccc2C3=O)NC(c2ccncc2)C1` (configuration not stated) was tested, and the GI50 was greater than 100 µM and the TGI was greater than 100 µM. `C=C(COC(C)=O)CC(/C=C(\C)CCC=C(C)C)OC(C)=O` (configuration not stated) was tested, and the TGI was greater than 100 µM. Work on `Cc1ccsc1C(=S)Nc1ccc(Cl)c(C(=O)OC(C(C)C)C(C)C)c1` yielded a TGI greater than 100 µM. With `CC1(C)CCc2cc3c(cc2O1)OCCC3=O` the TGI was greater than 100 µM. `COc1ccc(-c2cc(-c3cc(Cl)ccc3Cl)nc3nc(=S)[nH]c(N)c23)cc1` gave a GI50 of 22.1 µM and a TGI of 48.4 µM. `Oc1c2c(c(O)c3ccccc13)=N[C@@H](c1ccccc1)[C@H](c1ccccc1)N=2` was tested, and the TGI was greater than 100 µM. With `c1cc[c]([Sn]([S]c2cccc3cccnc23)([c]2ccccc2)[c]2ccccc2)cc1` the GI50 was 0.0305 µM and the TGI was 0.175 µM. For `O=C1CCn2c([nH]c3cccc4cccc2c43)=N1`, the TGI was greater than 100 µM. `C=C1CC(COc2cc(Cl)nc(N)n2)C1` was tested, and the GI50 was 38.6 µM. For `CCOc1cccc2nc3cccc(C(=O)NCCN(C)C)c3nc12`, the TGI was 4.45 µM. Work on `Cc1cc(C)nc(NS(=O)(=O)c2ccc(Nc3c4ccccc4nc4c(C(=O)N5CCN(CCOS(C)(=O)=O)CC5)ccc(Cl)c34)cc2)n1` yielded a TGI greater than 100 µM. Molecule `Clc1cc(Cl)c2c(Cl)cc(Cl)c3c2c1N=S=N3` has a TGI greater than 100 µM. With `C=CC(=O)N1CCN(c2ncnc3c(F)c(-c4c(O)cccc4F)c(Cl)cc23)CC1` the GI50 was 0.43 µM and the TGI was 15.9 µM. In the case of `CN1CCN(C)C1c1cccc(C2N(C)CCN2C)c1`, the TGI is reported as greater than 100 µM. `O=C1c2ccccc2-c2c1c1ccccc1c(=O)n2CCNCCCNCCn1c2c(c3ccccc3c1=O)C(=O)c1ccccc1-2` gave a GI50 of 0.249 µM and a TGI of 1.13 µM. Work on `CC(O)CN1C(=O)NC(Cc2ccccc2)C1=O` (configuration not stated) yielded a TGI greater than 100 µM. With `O=C(c1ccccc1)[C@H]1Nc2cnccc2C2c3ccccc3CC21` (some centres not stated) the TGI was 30.6 µM. Molecule `COc1ccc(C(=O)C(C(=O)CCC(=O)Nc2cccc(C(F)(F)F)c2)c2ccccc2)cc1` (configuration not stated) has a TGI greater than 100 µM. Molecule `NC1=NC(=O)C(CC(=O)Nc2ccc([N+](=O)[O-])cc2[N+](=O)[O-])S1` (configuration not stated) has a TGI greater than 100 µM. With `O=C1c2ccccc2-c2cccc3ccc(Cc4ccccc4)c1c23` the TGI was greater than 100 µM. `COC(=O)/C(=N\NC(=S)NN)C(C(=O)C(=O)Nc1ccccc1C(N)=O)c1nc2ccccc2[nH]c1=O` (configuration not stated) gave a TGI greater than 100 µM. Work on `CC/C=C\C/C=C\C1CC(=O)NCCCNCCCCN1` (configuration not stated) yielded a TGI greater than 100 µM. For `CC1CCCC(C(=O)/C(=C/c2cccc(Cl)c2)C(=O)C(=O)O)C1` (configuration not stated), the TGI was greater than 100 µM. `CC(=O)c1c(C)n([O-])c2cc(C)c(C)cc2[n+]1=O` showed a TGI greater than 100 µM. `C=C1C(=O)O[C@H]2[C@H]1CC/C(COC(=O)c1cc3cc(OC)ccc3[nH]1)=C\CC[C@@]1(C)O[C@@H]21` showed a GI50 of 1.49 µM and a TGI of 2.97 µM. In the case of `N#CC(C#N)=Cc1cccc(Oc2ccccc2)c1`, the TGI is reported as 22 µM. `COc1ccc(/C=C/C(=O)c2sc(-n3nc(-c4ccccc4)cc3-c3ccccc3)nc2C)cc1OC` showed a TGI greater than 100 µM. Work on `COC(=O)c1c(O)ccc2[nH]c(C)c(C#N)c12` yielded a GI50 of 77.1 µM and a TGI greater than 100 µM. `NC(CCSCC(F)F)C(=O)O` (configuration not stated) showed a TGI greater than 100 µM. `COC(=O)NC/C=C\c1nc(CC/C=C\C(=O)OC2CC3CC(=O)O[C@@H](/C=C/CC(C)C)C[C@@H]4CCC(C)C(C[C@@H](OC)CC(C2)O3)O4)co1` (some centres not stated) showed a GI50 of less than 0.01 µM and a TGI greater than 100 µM. In the case of `CC1(C)OC(=O)C=C([O-])O1.CC1(C)OC(=O)C=C([O-])O1.O=c1c(O)c(-c2ccc([O-])cc2[O-])oc2cc(O)cc(O)c12.[Ti+4]`, the TGI is reported as 73.7 µM.

These molecules were tested on SNB-75 CNS (assay: DTP human tumour cell line panel, 48 h).
`CN(C)C(=S)/N=c1\ss/c(=N\S(=O)(=O)c2ccccc2)n1-c1ccccc1` was tested, and the TGI was greater than 100 µM. `COc1cc2c3c(n(CCCN4CCC(N)CC4)c(=O)c2cc1OC)-c1cc2c(cc1C3=O)OCO2` gave a GI50 of 0.89 µM and a TGI of 5.56 µM. Molecule `C=C(C)[C@@H]1CC[C@@]2(C(=O)O)CC[C@]3(C)C(CCC4[C@@]5(C)CCC(OS(=O)(=O)c6ccccc6)C(C)(C)C5CC[C@]43C)C12` (some centres not stated) has a GI50 of 11.5 µM and a TGI of 30.5 µM. With `O=C(N/N=C/c1ccc(Cl)cc1Cl)c1ccccc1Nc1cccc(C(F)(F)F)c1` the GI50 was 2.55 µM and the TGI was 9.71 µM. `N#Cc1c(N)c(C(=O)O)nn(-c2cccc(C(F)(F)F)c2)c1=O` gave a TGI greater than 100 µM. Molecule `CCOC(=O)Cc1nc(/C(C#N)=C/c2ccco2)[nH]c(=O)c1C#N` has a TGI greater than 100 µM. Work on `CC1=Nc2c(ccc3c2C(=O)c2ccccc2C3=O)NC(c2ccncc2)C1` (configuration not stated) yielded a TGI greater than 100 µM. `COc1cc(/C=C\c2ccc(O)cc2)cc(OC)c1OC` showed a TGI greater than 30 µM. For `C=C(COC(C)=O)CC(/C=C(\C)CCC=C(C)C)OC(C)=O` (configuration not stated), the TGI was greater than 100 µM. `Cc1ccsc1C(=S)Nc1ccc(Cl)c(C(=O)OC(C(C)C)C(C)C)c1` showed a TGI of 95.3 µM. `CC1(C)CCc2cc3c(cc2O1)OCCC3=O` showed a TGI greater than 100 µM. Work on `COc1ccc(-c2cc(-c3cc(Cl)ccc3Cl)nc3nc(=S)[nH]c(N)c23)cc1` yielded a GI50 of 82.7 µM and a TGI greater than 100 µM. `Oc1c2c(c(O)c3ccccc13)=N[C@@H](c1ccccc1)[C@H](c1ccccc1)N=2` gave a TGI greater than 100 µM. With `c1cc[c]([Sn]([S]c2cccc3cccnc23)([c]2ccccc2)[c]2ccccc2)cc1` the TGI was 0.0473 µM. In the case of `O=C1CCn2c([nH]c3cccc4cccc2c43)=N1`, the TGI is reported as greater than 100 µM. `C=C1CC(COc2cc(Cl)nc(N)n2)C1` gave a GI50 of 29.2 µM. With `CCOc1cccc2nc3cccc(C(=O)NCCN(C)C)c3nc12` the TGI was 11.6 µM. For `Cc1cc(C)nc(NS(=O)(=O)c2ccc(Nc3c4ccccc4nc4c(C(=O)N5CCN(CCOS(C)(=O)=O)CC5)ccc(Cl)c34)cc2)n1`, the TGI was greater than 100 µM. `Clc1cc(Cl)c2c(Cl)cc(Cl)c3c2c1N=S=N3` gave a TGI greater than 100 µM. `C=CC(=O)N1CCN(c2ncnc3c(F)c(-c4c(O)cccc4F)c(Cl)cc23)CC1` gave a GI50 of 7.54 µM and a TGI of 22.6 µM. `CN1CCN(C)C1c1cccc(C2N(C)CCN2C)c1` gave a TGI greater than 100 µM. In the case of `CC(=O)OCCOCBr`, the TGI is reported as greater than 100 µM. Molecule `CC(O)CN1C(=O)NC(Cc2ccccc2)C1=O` (configuration not stated) has a TGI greater than 100 µM. `O=C(c1ccccc1)[C@H]1Nc2cnccc2C2c3ccccc3CC21` (some centres not stated) showed a TGI of 71.9 µM. Molecule `COc1ccc(C(=O)C(C(=O)CCC(=O)Nc2cccc(C(F)(F)F)c2)c2ccccc2)cc1` (configuration not stated) has a TGI greater than 100 µM. `NC1=NC(=O)C(CC(=O)Nc2ccc([N+](=O)[O-])cc2[N+](=O)[O-])S1` (configuration not stated) gave a TGI greater than 100 µM. Work on `O=C1c2ccccc2-c2cccc3ccc(Cc4ccccc4)c1c23` yielded a TGI greater than 100 µM. In the case of `CC/C=C\C/C=C\C1CC(=O)NCCCNCCCCN1` (configuration not stated), the TGI is reported as greater than 100 µM. `CC1CCCC(C(=O)/C(=C/c2cccc(Cl)c2)C(=O)C(=O)O)C1` (configuration not stated) gave a TGI greater than 100 µM. Work on `CC(=O)c1c(C)n([O-])c2cc(C)c(C)cc2[n+]1=O` yielded a TGI greater than 100 µM. `CCCS(=O)(=O)c1nc(NC2CC2)cc(-c2ccc3c(ccn3C3CC(C)(C)NC(C)(C)C3)c2)n1` showed a GI50 of 1.45 µM and a TGI of 2.86 µM. `N#CC(C#N)=Cc1cccc(Oc2ccccc2)c1` gave a TGI greater than 94.9 µM. `COC(=O)c1c(O)ccc2[nH]c(C)c(C#N)c12` was tested, and the GI50 was 87.9 µM and the TGI was greater than 100 µM. Molecule `NC(CCSCC(F)F)C(=O)O` (configuration not stated) has a TGI greater than 100 µM. `COC(=O)NC/C=C\c1nc(CC/C=C\C(=O)OC2CC3CC(=O)O[C@@H](/C=C/CC(C)C)C[C@@H]4CCC(C)C(C[C@@H](OC)CC(C2)O3)O4)co1` (some centres not stated) gave a GI50 greater than 100 µM and a TGI greater than 100 µM. In the case of `CC1(C)OC(=O)C=C([O-])O1.CC1(C)OC(=O)C=C([O-])O1.O=c1c(O)c(-c2ccc([O-])cc2[O-])oc2cc(O)cc(O)c12.[Ti+4]`, the TGI is reported as 60.4 µM.

The molecules below were run on MCF7 breast (assay: DTP human tumour cell line panel, 48 h).
With `COc1cc2c3c(n(CCCN4CCC(N)CC4)c(=O)c2cc1OC)-c1cc2c(cc1C3=O)OCO2` the GI50 was 0.283 µM and the TGI was 1.01 µM. `C=C(C)[C@@H]1CC[C@@]2(C(=O)O)CC[C@]3(C)C(CCC4[C@@]5(C)CCC(OS(=O)(=O)c6ccccc6)C(C)(C)C5CC[C@]43C)C12` (some centres not stated) was tested, and the GI50 was 4.4 µM and the TGI was 19.6 µM. In the case of `O=C(N/N=C/c1ccc(Cl)cc1Cl)c1ccccc1Nc1cccc(C(F)(F)F)c1`, the GI50 is reported as 11.3 µM and the TGI is reported as greater than 100 µM. `Cc1ccsc1C(=S)Nc1ccc(Cl)c(C(=O)OC(C(C)C)C(C)C)c1` showed a TGI greater than 100 µM. Work on `COc1ccc(-c2cc(-c3cc(Cl)ccc3Cl)nc3nc(=S)[nH]c(N)c23)cc1` yielded a GI50 of 20.1 µM and a TGI greater than 100 µM. `C=C1CC(COc2cc(Cl)nc(N)n2)C1` showed a GI50 of 39.4 µM.
